Reference: PMC11149885 (PLOS ONE, 2024)
pIC50: −log10 of the molar value. Several values for one entry are separate records, joined by “and”; a condition that tells them apart may be missing. Equal entries are not always repeated.

Columns and labels:
VEGFR1 = VEGFR1 (Homo sapiens, UniProt P17948); test: HotSpot kinase screen; format: biochemical; set-up: purchased Millipore Corporation (Dundee, Scotland) or Reaction Biology Corporation (contract assay); conditions: 10μM ATP
Method: (§1) Measurement of kinase activity was performed by Reaction Biology Corporation (Reaction Biology Corporation, Malvern, PA), using the HotSpot™ assay. The screen focused on RTKs reported in the literature to play a major role in the regulation of angiogenesis (VEGFR1, VEGFR2, and VEGFR3; fibroblast growth factor receptor [FGFR] 1, 2, and 3; and platelet-derived growth factor receptor beta [PDGFRβ]) as well as an RTK essential for maintaining blood vessel stability (TIE2). For the profiling, specific kinase/substrate pairs and required cofactors were prepared in a reaction buffer (20mM Hepes [pH 7.5], 10mM MgCl2, 1mM EGTA, 0.02% Brij35, 0.02 mg/mL BSA, 0.1mM Na3VO4, 2mM DTT, 1% dimethyl sulfoxide [DMSO]). TKI compounds were diluted to 10μM and 1μM concentrations for the screens and after addition to the reaction buffer incubated for 20 minutes, followed by the addition of a mixture of ATP (Sigma, St. Louis, MO) and ^33P-ATP (Perkin Elmer, Waltham, MA) to a final ATP concentration of 10μM. Reactions were carried out at room temperature for 2 hours, followed by spotting of the reactions onto P81 ion exchange filter paper (Whatman Inc., Piscataway, NJ). Unbound phosphate was removed by extensive washing of the filters. […] Kinome TREEspot images representing levels of inhibition were prepared using Kinome Mapper (https://www.reactionbiology.com/resources/tools/kinase-mapper).

TIE2 [1] = target: T1, TIE2 (Homo sapiens, UniProt Q02763); test: HotSpot kinase screen; format: biochemical; set-up: purchased Reaction Biology Corporation (contract assay); conditions: 10μM ATP
PDGFRβ = target: T2, PDGFRβ (Homo sapiens, UniProt P09619); test: HotSpot kinase screen; format: biochemical; conditions: 10μM ATP
T2 construct: purchased Reaction Biology Corporation (contract assay)

TIE2 [2] = target: T1, TIE2; test: Ten-dose IC50 measurement
VEGFR3 = target: T3, VEGFR3 (Homo sapiens, UniProt P35916); test: HotSpot kinase screen; format: biochemical; conditions: 10μM ATP
T3 construct: purchased Millipore Corporation (Dundee, Scotland) or Reaction Biology Corporation (contract assay)
Method: as §1

FGFR2 = target: T4, FGFR2 (Homo sapiens, UniProt P21802); test: HotSpot kinase screen; format: biochemical; conditions: 10μM ATP
T4 construct: purchased Reaction Biology Corporation (contract assay)
Method: as §1

VEGFR2 [3] = target: T5, VEGFR2 (Homo sapiens, UniProt P35968); test: Previously reported IC50 (literature); format: biochemical; conditions: nM value converted, S2 Fig legend
T5 construct: purchased Millipore Corporation (Dundee, Scotland) or Reaction Biology Corporation (contract assay)

VEGFR2 [4] = target: T5, VEGFR2; test: Ten-dose IC50 measurement; format: biochemical; conditions: 10μM ATP
VEGFR2 [5] = target: T5, VEGFR2; test: HotSpot kinase screen; format: biochemical; conditions: 10μM ATP
FGFR3 = target: T6, FGFR3 (Homo sapiens, UniProt P22607); test: HotSpot kinase screen; format: biochemical; conditions: 10μM ATP
T6 construct: purchased Reaction Biology Corporation (contract assay)

[6] = system: VEGF-A–induced sprouting of HUVECs; test: HUVEC spheroid sprouting assay; format: cell-based, human; conditions: for cumulative sprout length per spheroid (CSL), mean: 25 ng/mL VEGF-165, 24 hours
Method: The three TKI compounds were tested by Reaction Biology Europe (Freiburg, Germany) in the spheroid-based cellular angiogenesis assay to determine their effect on VEGF-A–induced sprouting of HUVECs. Primary HUVECs from pooled donors at passage 3 to 4 (PromoCell, Heidelberg, Germany) were grown in endothelial cell growth and basal medium (ECGM/ECBM, PromoCell). Test compounds were prepared as 100-fold concentrated stock solutions in DMSO and pre-diluted in basal medium. HUVECs were stimulated using 25 ng/mL VEGF-165 (Reaction Biology Europe, Freiburg, Germany) pre-diluted in basal medium.
Spheroids were prepared as described by pipetting 400 HUVECs in a hanging drop on plastic dishes to allow overnight spheroid aggregation. Fifty HUVEC spheroids were seeded in 0.9 mL of a collagen gel and pipetted into individual wells of a 24-well plate to allow polymerization. Test compounds and VEGF-165 were added after 30 minutes by pipetting 100 μL of a ten-fold concentrated solution onto the polymerized gel. Plates were incubated at 37°C for 24 hours, and cells were fixed by adding 4% paraformaldehyde (Roth, Karlsruhe, Germany). Sprouting intensity of HUVEC spheroids treated with the test samples was quantitated using an image analysis system to determine the cumulative sprout length (CSL) per spheroid. Images of single spheroids were captured using an inverted microscope and the digital imaging software NIS-Elements BR 3.0 (Nikon). Spheroid pictures were uploaded to Wimasis (www.wimasis.com) for image analysis. The CSL of each spheroid was determined using the imaging analysis tool WimSprout. The mean CSL of ten randomly selected spheroids was analyzed as an individual data point.

[7] = system: VEGF-induced angiogenesis on the CAM; test: Gelatin sponge chick chorioallantoic membrane (CAM) assay
FGFR1 = target: T7, FGFR1 (Homo sapiens, UniProt P11362); test: HotSpot kinase screen; format: biochemical; conditions: 10μM ATP
T7 construct: purchased Reaction Biology Corporation (contract assay)

T1 sequence (Q02763 23-1124): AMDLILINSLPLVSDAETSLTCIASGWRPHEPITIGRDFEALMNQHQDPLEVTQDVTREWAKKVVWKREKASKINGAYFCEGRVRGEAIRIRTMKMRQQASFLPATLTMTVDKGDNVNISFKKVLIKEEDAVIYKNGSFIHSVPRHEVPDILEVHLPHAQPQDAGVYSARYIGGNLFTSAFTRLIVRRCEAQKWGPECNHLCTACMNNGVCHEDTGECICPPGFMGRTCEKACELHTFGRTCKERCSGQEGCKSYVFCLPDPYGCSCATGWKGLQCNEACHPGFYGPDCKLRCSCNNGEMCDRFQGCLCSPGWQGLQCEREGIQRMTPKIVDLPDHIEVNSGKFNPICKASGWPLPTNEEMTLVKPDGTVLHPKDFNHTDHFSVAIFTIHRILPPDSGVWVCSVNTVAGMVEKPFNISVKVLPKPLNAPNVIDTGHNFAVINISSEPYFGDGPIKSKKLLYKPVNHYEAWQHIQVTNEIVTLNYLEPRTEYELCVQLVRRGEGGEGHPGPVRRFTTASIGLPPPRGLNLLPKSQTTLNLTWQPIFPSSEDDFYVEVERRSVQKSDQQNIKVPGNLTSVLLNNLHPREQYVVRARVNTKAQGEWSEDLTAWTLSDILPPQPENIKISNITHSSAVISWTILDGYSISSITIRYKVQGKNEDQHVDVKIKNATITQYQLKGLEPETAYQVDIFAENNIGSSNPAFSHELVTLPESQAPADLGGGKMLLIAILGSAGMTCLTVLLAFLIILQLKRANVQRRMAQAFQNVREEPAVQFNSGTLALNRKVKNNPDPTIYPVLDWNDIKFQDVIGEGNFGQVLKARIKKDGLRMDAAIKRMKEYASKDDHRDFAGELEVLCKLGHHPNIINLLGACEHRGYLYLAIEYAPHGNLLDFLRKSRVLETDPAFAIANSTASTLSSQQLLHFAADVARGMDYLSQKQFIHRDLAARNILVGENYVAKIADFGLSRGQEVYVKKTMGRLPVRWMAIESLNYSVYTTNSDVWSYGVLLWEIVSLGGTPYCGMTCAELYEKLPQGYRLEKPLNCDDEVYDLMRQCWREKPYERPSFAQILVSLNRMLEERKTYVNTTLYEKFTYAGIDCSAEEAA
T5 sequence (P35968 20-1356): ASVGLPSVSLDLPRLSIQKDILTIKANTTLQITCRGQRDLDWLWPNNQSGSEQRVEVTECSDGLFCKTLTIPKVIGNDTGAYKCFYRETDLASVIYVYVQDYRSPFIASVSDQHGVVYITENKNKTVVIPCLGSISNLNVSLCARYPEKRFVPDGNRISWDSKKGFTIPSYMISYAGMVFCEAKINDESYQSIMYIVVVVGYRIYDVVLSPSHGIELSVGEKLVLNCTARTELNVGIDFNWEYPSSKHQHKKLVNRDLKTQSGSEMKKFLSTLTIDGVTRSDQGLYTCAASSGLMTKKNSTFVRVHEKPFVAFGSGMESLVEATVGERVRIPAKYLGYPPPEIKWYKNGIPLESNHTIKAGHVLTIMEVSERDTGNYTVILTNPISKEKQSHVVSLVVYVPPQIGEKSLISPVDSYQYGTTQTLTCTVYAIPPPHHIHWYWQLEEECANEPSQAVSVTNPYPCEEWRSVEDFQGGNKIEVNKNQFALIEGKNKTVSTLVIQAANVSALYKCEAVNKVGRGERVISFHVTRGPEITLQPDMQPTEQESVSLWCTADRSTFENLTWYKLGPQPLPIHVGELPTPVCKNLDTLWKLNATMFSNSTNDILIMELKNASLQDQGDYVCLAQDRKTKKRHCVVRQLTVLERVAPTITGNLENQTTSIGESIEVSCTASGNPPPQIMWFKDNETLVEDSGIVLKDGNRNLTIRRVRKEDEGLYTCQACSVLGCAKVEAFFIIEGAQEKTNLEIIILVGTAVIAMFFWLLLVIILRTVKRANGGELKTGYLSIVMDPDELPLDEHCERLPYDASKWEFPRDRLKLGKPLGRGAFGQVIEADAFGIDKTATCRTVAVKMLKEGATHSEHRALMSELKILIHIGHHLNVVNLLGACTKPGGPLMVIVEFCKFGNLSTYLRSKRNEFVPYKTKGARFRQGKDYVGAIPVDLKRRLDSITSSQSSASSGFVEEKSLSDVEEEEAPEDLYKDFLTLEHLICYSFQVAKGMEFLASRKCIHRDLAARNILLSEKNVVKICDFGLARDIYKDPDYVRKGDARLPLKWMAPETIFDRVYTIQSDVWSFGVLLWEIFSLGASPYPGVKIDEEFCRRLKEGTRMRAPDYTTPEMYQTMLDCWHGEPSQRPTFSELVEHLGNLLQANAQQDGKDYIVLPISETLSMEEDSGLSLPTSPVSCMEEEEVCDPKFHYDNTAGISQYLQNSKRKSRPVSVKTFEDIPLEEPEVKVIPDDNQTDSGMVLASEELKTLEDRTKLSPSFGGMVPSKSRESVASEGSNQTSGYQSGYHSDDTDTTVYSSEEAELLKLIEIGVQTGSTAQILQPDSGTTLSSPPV
T6 sequence (P22607 23-806): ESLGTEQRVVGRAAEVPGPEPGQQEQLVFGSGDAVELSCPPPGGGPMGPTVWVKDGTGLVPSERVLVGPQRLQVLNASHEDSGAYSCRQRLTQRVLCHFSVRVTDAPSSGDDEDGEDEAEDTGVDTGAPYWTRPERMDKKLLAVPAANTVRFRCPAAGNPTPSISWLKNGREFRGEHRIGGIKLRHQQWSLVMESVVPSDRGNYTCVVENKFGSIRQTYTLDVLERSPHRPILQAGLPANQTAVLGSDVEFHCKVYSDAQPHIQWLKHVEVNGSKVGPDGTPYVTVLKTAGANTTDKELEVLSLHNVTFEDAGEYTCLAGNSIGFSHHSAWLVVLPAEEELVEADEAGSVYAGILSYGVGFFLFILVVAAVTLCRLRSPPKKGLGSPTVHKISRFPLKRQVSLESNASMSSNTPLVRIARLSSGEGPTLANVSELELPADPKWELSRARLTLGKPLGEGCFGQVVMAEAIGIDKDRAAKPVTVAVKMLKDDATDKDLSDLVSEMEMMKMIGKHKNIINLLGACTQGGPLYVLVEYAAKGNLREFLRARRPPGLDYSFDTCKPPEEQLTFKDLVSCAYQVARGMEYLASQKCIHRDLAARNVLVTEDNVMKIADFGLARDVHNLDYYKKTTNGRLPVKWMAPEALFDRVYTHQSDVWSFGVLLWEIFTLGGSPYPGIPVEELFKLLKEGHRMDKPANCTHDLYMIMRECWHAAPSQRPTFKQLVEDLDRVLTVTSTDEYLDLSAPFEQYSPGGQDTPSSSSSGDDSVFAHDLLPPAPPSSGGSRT
VEGFR1, sequence (P17948 27-1338): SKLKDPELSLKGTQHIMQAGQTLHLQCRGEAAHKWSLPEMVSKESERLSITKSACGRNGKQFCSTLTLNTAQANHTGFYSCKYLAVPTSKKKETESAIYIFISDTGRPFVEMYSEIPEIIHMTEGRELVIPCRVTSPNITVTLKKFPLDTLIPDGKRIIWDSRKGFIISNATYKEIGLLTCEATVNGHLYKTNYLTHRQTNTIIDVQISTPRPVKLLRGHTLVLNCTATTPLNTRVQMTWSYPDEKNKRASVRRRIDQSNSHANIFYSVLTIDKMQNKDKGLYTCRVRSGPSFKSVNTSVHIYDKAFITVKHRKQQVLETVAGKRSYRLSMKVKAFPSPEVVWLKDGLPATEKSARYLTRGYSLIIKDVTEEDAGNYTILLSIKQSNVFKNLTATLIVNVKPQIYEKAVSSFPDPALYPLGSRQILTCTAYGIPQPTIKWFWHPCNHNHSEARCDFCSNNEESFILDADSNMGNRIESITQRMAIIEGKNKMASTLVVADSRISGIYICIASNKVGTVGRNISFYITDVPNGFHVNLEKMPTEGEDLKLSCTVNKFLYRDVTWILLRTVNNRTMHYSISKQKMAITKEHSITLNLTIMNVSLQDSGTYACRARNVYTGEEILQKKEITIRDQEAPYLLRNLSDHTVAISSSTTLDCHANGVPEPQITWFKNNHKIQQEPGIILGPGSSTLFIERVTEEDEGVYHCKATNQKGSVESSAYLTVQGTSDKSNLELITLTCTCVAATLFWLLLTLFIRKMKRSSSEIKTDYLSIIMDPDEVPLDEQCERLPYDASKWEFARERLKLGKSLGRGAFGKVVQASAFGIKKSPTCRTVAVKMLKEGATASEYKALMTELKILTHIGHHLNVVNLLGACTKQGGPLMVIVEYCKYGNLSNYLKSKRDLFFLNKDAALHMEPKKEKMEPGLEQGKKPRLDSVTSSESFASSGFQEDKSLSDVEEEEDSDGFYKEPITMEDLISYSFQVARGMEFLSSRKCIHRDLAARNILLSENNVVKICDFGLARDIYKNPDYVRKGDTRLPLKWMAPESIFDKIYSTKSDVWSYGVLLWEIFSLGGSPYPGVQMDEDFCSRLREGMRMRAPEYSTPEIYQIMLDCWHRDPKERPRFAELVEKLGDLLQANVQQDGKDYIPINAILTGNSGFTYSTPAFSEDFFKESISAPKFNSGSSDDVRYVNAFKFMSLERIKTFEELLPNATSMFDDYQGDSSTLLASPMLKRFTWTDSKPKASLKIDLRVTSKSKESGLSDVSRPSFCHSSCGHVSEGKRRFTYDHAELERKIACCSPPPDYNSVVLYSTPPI

Cc1[nH]c(/C=C2\C(=O)Nc3ccc(F)cc32)c(C)c1C(=O)N[C@H]1CCN(C(=O)N(C)C)C1 [Vorolanib]
Avg % Inhibition VEGFR1 (VEGFR1; 1uM TKI): 54.61%
Avg % Inhibition VEGFR1 (VEGFR1; 10uM TKI): 77.43%
Avg % Inhibition TIE2 (TIE2 [1]; 1uM TKI): 4.09%
Avg % Inhibition TIE2 (TIE2 [1]; 1uM TKI, listed as vorolanib): 4%
Avg % Inhibition TIE2 (TIE2 [1]; 10uM TKI): 21.27%
Avg % Inhibition TIE2 (TIE2 [1]; 10uM TKI, listed as vorolanib): 21%
Avg % Inhibition PDGFRb (PDGFRβ; 1uM TKI): 83.57%
Avg % Inhibition PDGFRb (PDGFRβ; 10uM TKI): 94.8%
%Activity TIE2 (TIE2 [2]; 1.00E-05 M TKI, 10μM ATP): 69.30%
%Activity TIE2 (TIE2 [2]; 1.11E-06 M TKI, 10μM ATP): 100.16%
%Activity TIE2 (TIE2 [2]; 1.37E-08 M TKI, 10μM ATP): 100.50%
%Activity TIE2 (TIE2 [2]; 1.52E-09 M TKI, 10μM ATP): 103.72%
%Activity TIE2 (TIE2 [2]; 3.33E-06 M TKI, 10μM ATP): 83.50%
%Activity TIE2 (TIE2 [2]; 3.70E-07 M TKI, 10μM ATP): 100.13%
%Activity TIE2 (TIE2 [2]; 4.12E-08 M TKI, 10μM ATP): 99.77%
%Activity TIE2 (TIE2 [2]; 4.57E-09 M TKI, 10μM ATP): 100.65%
%Activity TIE2 (TIE2 [2]; 5.08E-10 M TKI, 10μM ATP): 98.18%
pIC50 (TIE2 [2]; IC50 TIE2, 10μM ATP, S1 Dataset): 4.68
pIC50 (TIE2 [2]; TIE2 IC50, determined by Reaction Biology (US), 10μM ATP): 4.68
Avg % Inhibition VEGFR3 (VEGFR3; 1uM TKI): 90.14%
Avg % Inhibition VEGFR3 (VEGFR3; 10uM TKI): 98.55%
Avg % Inhibition FGFR2 (FGFR2; 1uM TKI): 56.64%
Avg % Inhibition FGFR2 (FGFR2; 10uM TKI): 90.82%
IC50 (VEGFR2 [3]): 52.3 nM
pIC50 (VEGFR2 [4]; S1 Dataset, read-out: IC50 VEGFR2): 7.12
%Activity VEGFR2 (VEGFR2 [4]; 1.00E-05 M TKI): 7.53%
%Activity VEGFR2 (VEGFR2 [4]; 1.11E-06 M TKI): 15.96%
%Activity VEGFR2 (VEGFR2 [4]; 1.23E-07 M TKI): 39.66%
%Activity VEGFR2 (VEGFR2 [4]; 1.37E-08 M TKI): 76.92%
%Activity VEGFR2 (VEGFR2 [4]; 1.52E-09 M TKI): 90.70%
%Activity VEGFR2 (VEGFR2 [4]; 3.33E-06 M TKI): 8.61%
%Activity VEGFR2 (VEGFR2 [4]; 3.70E-07 M TKI): 24.16%
%Activity VEGFR2 (VEGFR2 [4]; 4.12E-08 M TKI): 62.72%
%Activity VEGFR2 (VEGFR2 [4]; 4.57E-09 M TKI): 90.18%
%Activity VEGFR2 (VEGFR2 [4]; 5.08E-10 M TKI): 99.81%
IC50 (VEGFR2 [4]; Fig 3A inset, unit inferred, plot axes in (M), read-out: Compound IC50 data for VEGFR-2: IC50): 7.61e-08 M
Avg % Inhibition VEGFR2 (VEGFR2 [5]; 1uM TKI): 74.78%
Avg % Inhibition VEGFR2 (VEGFR2 [5]; 10uM TKI): 86.6%
Avg % Inhibition FGFR3 (FGFR3; 1uM TKI): 63.96%
Avg % Inhibition FGFR3 (FGFR3; 10uM TKI): 86.13%
cumulative sprout length per spheroid (CSL), mean ([6]; 1.00E-05 M TKI): 144
cumulative sprout length per spheroid (CSL), mean ([6]; 1.00E-06 M TKI): 242
cumulative sprout length per spheroid (CSL), mean ([6]; 1.00E-07 M TKI): 455
cumulative sprout length per spheroid (CSL), mean ([6]; 3.00E-06 M TKI): 269
cumulative sprout length per spheroid (CSL), mean ([6]; 3.00E-07 M TKI): 241
cumulative sprout length per spheroid (CSL), mean ([6]; 3.00E-08 M TKI): 992
vessel sprouting (representative spheroid images) ([6]; highest test concentration of 1×10^–5M): zero vessel sprouting
Angiogenesis - Vessel number, Mean ([7]; TKI at 200 x VEGFR2 IC50): 8.7
Angiogenesis - Vessel number, individual egg ([7]; TKI at 200 x VEGFR2 IC50, one value per egg): 1.33 and 10.33 and 14 and 8.33 and 9.33 and 9
reduction of the number of blood vessels perfusing the sponges vs negative control ([7]; TKI at 200× VEGFR2 IC50 dose): 37.1%
reduction of the number of blood vessels perfusing the sponges vs negative control ([7]; TKI at VEGFR2 IC50 dose): 39.9%
Angiogenesis - Vessel thickness score, Mean ([7]; TKI at VEGFR2 IC50 dose, score 0-3): 1.2
Angiogenesis - Vessel thickness score, individual egg ([7]; TKI at VEGFR2 IC50 dose, score 0-3, one value per egg): 0 and 1.67 and 1.33 and 1 and 0.67 and 2.33
Avg % Inhibition FGFR1 (FGFR1; 1uM TKI): 28.53%
Avg % Inhibition FGFR1 (FGFR1; 10uM TKI): 65.32%
